Experimental data taken from article PMC5218480 (PLoS ONE, 2017).

System: MV-4-11 cells
Test: Gene expression microarray analysis (Affymetrix PrimeView) and GSEA
Format: cell-based, human
Design: RFU PODN (11730768_x_at) / Fold change /veh PODN (11730768_x_at) / RFU LINC00158 (11744669_a_at) / Fold change /veh LINC00158 (11744669_a_at) / RFU DUSP10 (11751237_a_at) / Fold change /veh DUSP10 (11751237_a_at) / RFU ID3 (11757404_x_at) / Fold change /veh ID3 (11757404_x_at) / RFU PLEKHG5 (11737974_s_at) / Fold change /veh PLEKHG5 (11737974_s_at) / RFU LRRC4B (11730491_at) / Fold change /veh LRRC4B (11730491_at) / RFU GIMAP4 (11747438_a_at) / Fold change /veh GIMAP4 (11747438_a_at) / RFU KRT8 (11758183_x_at) / Fold change /veh KRT8 (11758183_x_at) / RFU CNN1 (11734310_a_at) / Fold change /veh CNN1 (11734310_a_at) / RFU VPS37D (11726825_at) / Fold change /veh VPS37D (11726825_at) / RFU C10orf10 (11716522_x_at) / Fold change /veh C10orf10 (11716522_x_at) / RFU KIR2DL2 /// KIR2DL4 /// KIR2DL5A /// KIR2DL5B /// KIR2DS1 /// KIR2DS2 /// KIR2DS3 /// KIR2DS4 /// KIR3DL3 /// KIR3DL3 /// KIR3DS1 (11738374_at) / Fold change /veh KIR2DL2 /// KIR2DL4 /// KIR2DL5A /// KIR2DL5B /// KIR2DS1 /// KIR2DS2 /// KIR2DS3 /// KIR2DS4 /// KIR3DL3 /// KIR3DL3 /// KIR3DS1 (11738374_at) / RFU C1QL1 (11718748_at) / Fold change /veh C1QL1 (11718748_at) / RFU TMPRSS4 (11747572_a_at) / Fold change /veh TMPRSS4 (11747572_a_at) / RFU HAMP (11756126_x_at) / Fold change /veh HAMP (11756126_x_at) / RFU RNFT2 (11725882_a_at) / Fold change /veh RNFT2 (11725882_a_at) / RFU NR4A2 (11747474_a_at) / Fold change /veh NR4A2 (11747474_a_at) / RFU ABCC12 (11746883_a_at) / Fold change /veh ABCC12 (11746883_a_at) / RFU TMEM136 (11760407_x_at) / Fold change /veh TMEM136 (11760407_x_at) / RFU CLDN22 /// WWC2 (11732394_at) / Fold change /veh CLDN22 /// WWC2 (11732394_at) / RFU HLA-DPB1 (11760878_x_at) / Fold change /veh HLA-DPB1 (11760878_x_at) / RFU SPINT1 (11716480_a_at) / Fold change /veh SPINT1 (11716480_a_at) / RFU GAP43 (11754022_s_at) / Fold change /veh GAP43 (11754022_s_at) / RFU A4GNT (11735810_at) / Fold change /veh A4GNT (11735810_at) / RFU PRB3 (11715151_x_at) / Fold change /veh PRB3 (11715151_x_at) / RFU TUBB4B (11761932_at) / Fold change /veh TUBB4B (11761932_at) / RFU CAPN14 (11732068_a_at) / Fold change /veh CAPN14 (11732068_a_at) / RFU TMCC2 (11721928_a_at) / Fold change /veh TMCC2 (11721928_a_at) / RFU IRGQ (11745062_a_at) / Fold change /veh IRGQ (11745062_a_at) / RFU FAM174B (11720279_a_at) / Fold change /veh FAM174B (11720279_a_at) / RFU TMPRSS4 (11748680_a_at) / Fold change /veh TMPRSS4 (11748680_a_at) / RFU FAM212B (11763350_a_at) / Fold change /veh FAM212B (11763350_a_at) / RFU PLEKHG5 (11743358_a_at) / Fold change /veh PLEKHG5 (11743358_a_at) / RFU ZSCAN30 (11745921_a_at) / Fold change /veh ZSCAN30 (11745921_a_at) / RFU CMKLR1 (11741424_a_at) / Fold change /veh CMKLR1 (11741424_a_at) / RFU LOC101060620 /// MAPK8IP1 (11723275_at) / Fold change /veh LOC101060620 /// MAPK8IP1 (11723275_at) / RFU SPTSSB (11747773_x_at) / Fold change /veh SPTSSB (11747773_x_at) / RFU PRSS12 (11739890_at) / Fold change /veh PRSS12 (11739890_at) / RFU BIN1 (11741810_x_at) / Fold change /veh BIN1 (11741810_x_at) / RFU WNT11 (11732464_a_at) / Fold change /veh WNT11 (11732464_a_at) / RFU C10orf10 (11716521_a_at) / Fold change /veh C10orf10 (11716521_a_at) / RFU C5orf56 (11738089_at) / Fold change /veh C5orf56 (11738089_at) / RFU CYB561 (11721691_x_at) / Fold change /veh CYB561 (11721691_x_at) / RFU ANKRD19P (11752326_a_at) / Fold change /veh ANKRD19P (11752326_a_at) / RFU OR2T12 /// OR2T33 /// OR2T8 (11738714_s_at) / Fold change /veh OR2T12 /// OR2T33 /// OR2T8 (11738714_s_at) / RFU VCAN (11748164_a_at) / Fold change /veh VCAN (11748164_a_at) / RFU JSRP1 (11732532_at) / Fold change /veh JSRP1 (11732532_at) / RFU KRTAP10-11 (11738290_x_at) / Fold change /veh KRTAP10-11 (11738290_x_at) / RFU MYO3A (11730013_a_at) / Fold change /veh MYO3A (11730013_a_at) / RFU EBF3 (11725865_a_at) / Fold change /veh EBF3 (11725865_a_at) / RFU CAMK2N1 (11719241_x_at) / Fold change /veh CAMK2N1 (11719241_x_at) / RFU C5orf56 (11738088_a_at) / Fold change /veh C5orf56 (11738088_a_at) / RFU OLFML3 (11715873_a_at) / Fold change /veh OLFML3 (11715873_a_at) / RFU LOC100653217 /// NTM (11731650_a_at) / Fold change /veh LOC100653217 /// NTM (11731650_a_at) / RFU MAPK11 (11762145_a_at) / Fold change /veh MAPK11 (11762145_a_at) / RFU FIZ1 (11724087_x_at) / Fold change /veh FIZ1 (11724087_x_at) / RFU OASL (11726364_x_at) / Fold change /veh OASL (11726364_x_at) / RFU SOX15 (11748057_x_at) / Fold change /veh SOX15 (11748057_x_at) / RFU CD79A (11719716_a_at) / Fold change /veh CD79A (11719716_a_at) / RFU HIST1H1D (11736915_at) / Fold change /veh HIST1H1D (11736915_at) / RFU CASKIN2 (11723855_a_at) / Fold change /veh CASKIN2 (11723855_a_at) / RFU LOC730098 (11760151_x_at) / Fold change /veh LOC730098 (11760151_x_at) / RFU OR4N2 (11742367_at) / Fold change /veh OR4N2 (11742367_at) / RFU PRRT2 (11749266_a_at) / Fold change /veh PRRT2 (11749266_a_at) / RFU SNX32 (11753110_a_at) / Fold change /veh SNX32 (11753110_a_at) / RFU CDHR5 (11726645_a_at) / Fold change /veh CDHR5 (11726645_a_at) / RFU RCAN1 (11760418_a_at) / Fold change /veh RCAN1 (11760418_a_at) / RFU FAM167A (11723789_a_at) / Fold change /veh FAM167A (11723789_a_at) / RFU FAM26E (11764081_at) / Fold change /veh FAM26E (11764081_at) / RFU ISYNA1 (11749810_s_at) / Fold change /veh ISYNA1 (11749810_s_at) / RFU ACY1 (11761880_at) / Fold change /veh ACY1 (11761880_at) / RFU 11764098_at / Fold change /veh 11764098_at / RFU SAMD14 (11745864_x_at) / Fold change /veh SAMD14 (11745864_x_at) / RFU NPB (11741838_a_at) / Fold change /veh NPB (11741838_a_at) / RFU TMPRSS6 (11731388_a_at) / Fold change /veh TMPRSS6 (11731388_a_at) / RFU KRTAP10-2 (11738614_at) / Fold change /veh KRTAP10-2 (11738614_at) / RFU ARHGAP8 /// PRR5-ARHGAP8 (11727945_x_at) / Fold change /veh ARHGAP8 /// PRR5-ARHGAP8 (11727945_x_at) / RFU KRTAP5-7 /// NADSYN1 (11734609_at) / Fold change /veh KRTAP5-7 /// NADSYN1 (11734609_at) / RFU RASL12 (11751679_a_at) / Fold change /veh RASL12 (11751679_a_at) / RFU CDKN2B (11736163_a_at) / Fold change /veh CDKN2B (11736163_a_at) / RFU PRF1 (11729649_at) / Fold change /veh PRF1 (11729649_at) / RFU, ZNF638 /// ZNF638-IT1 / Fold change vs veh, ZNF638 /// ZNF638-IT1 / RFU, PANK3 / Fold change vs veh, PANK3 / RFU, SH3YL1 / Fold change vs veh, SH3YL1 / RFU, ZEB2 / Fold change vs veh, ZEB2 / RFU, NRIP1 / Fold change vs veh, NRIP1 / RFU, PTTG1IP / Fold change vs veh, PTTG1IP / RFU, CAPN2 / Fold change vs veh, CAPN2 / RFU, MED14 / Fold change vs veh, MED14 / RFU, SNORA58 / Fold change vs veh, SNORA58 / RFU, C1orf63 / Fold change vs veh, C1orf63 / RFU, LRRFIP1 / Fold change vs veh, LRRFIP1 / RFU, NDUFAF7 / Fold change vs veh, NDUFAF7 / RFU, SLC12A2 / Fold change vs veh, SLC12A2 / RFU, IBTK / Fold change vs veh, IBTK / RFU, ESF1 / Fold change vs veh, ESF1 / Fold change vs veh, TMEM50B / RFU, TAOK1 / Fold change vs veh, TAOK1 / RFU, ACBD3 / Fold change vs veh, ACBD3 / RFU, TMA16 / Fold change vs veh, TMA16 / RFU, RWDD3 / Fold change vs veh, RWDD3 / RFU, BCAT1 / Fold change vs veh, BCAT1 / RFU, EDEM3 / Fold change vs veh, EDEM3 / RFU, TMEM33 / Fold change vs veh, TMEM33 / RFU, WDR75 / Fold change vs veh, WDR75 / RFU, AHCTF1 / Fold change vs veh, AHCTF1 / RFU, TFRC / Fold change vs veh, TFRC / RFU, ZDHHC17 / Fold change vs veh, ZDHHC17 / RFU, NOM1 / Fold change vs veh, NOM1 / RFU, ARL8B / Fold change vs veh, ARL8B / RFU, ZBTB11 / Fold change vs veh, ZBTB11 / RFU, TAMM41 / Fold change vs veh, TAMM41 / RFU, KIAA1704 /// LOC100996395 / Fold change vs veh, KIAA1704 /// LOC100996395 / RFU, ING1 / Fold change vs veh, ING1 / RFU, TRMT61B / Fold change vs veh, TRMT61B / RFU, FUBP3 / Fold change vs veh, FUBP3 / RFU, TP53 / Fold change vs veh, TP53 / RFU, TNKS2 / Fold change vs veh, TNKS2 / RFU, ZFP14 / Fold change vs veh, ZFP14 / RFU, ACTR2 / Fold change vs veh, ACTR2 / RFU, PPP3R1 / Fold change vs veh, PPP3R1 / RFU, PIK3R1 / Fold change vs veh, PIK3R1 / RFU, HNRNPA1 / Fold change vs veh, HNRNPA1 / RFU, RNF170 / Fold change vs veh, RNF170 / RFU, ZNF28 / Fold change vs veh, ZNF28 / RFU, RNGTT / Fold change vs veh, RNGTT / RFU, OGT / Fold change vs veh, OGT / RFU, BRD1 / Fold change vs veh, BRD1 / RFU, MARS / Fold change vs veh, MARS / RFU, ZNF655 / Fold change vs veh, ZNF655 / RFU, FAHD1 / Fold change vs veh, FAHD1 / RFU, BDP1 / Fold change vs veh, BDP1 / RFU, LRRCC1 / Fold change vs veh, LRRCC1 / RFU, ARID1A / Fold change vs veh, ARID1A / RFU, ZNF146 / Fold change vs veh, ZNF146 / RFU, ZNF330 / Fold change vs veh, ZNF330 / RFU, GPN3 / Fold change vs veh, GPN3 / RFU, C9orf123 / Fold change vs veh, C9orf123 / RFU, N4BP2L2 / Fold change vs veh, N4BP2L2 / RFU, ARFIP1 / Fold change vs veh, ARFIP1 / RFU, FAM179B / Fold change vs veh, FAM179B / RFU, BCL10 / Fold change vs veh, BCL10 / RFU, UHRF1BP1L / Fold change vs veh, UHRF1BP1L / RFU, BET1 / Fold change vs veh, BET1 / RFU, CNOT2 / Fold change vs veh, CNOT2 / RFU, ZNF268 / Fold change vs veh, ZNF268 / Fold change vs veh, ZNF507 / RFU, DGCR2 / Fold change vs veh, DGCR2 / RFU, WDSUB1 / Fold change vs veh, WDSUB1 / Fold change vs veh, HSP90B1 /// MIR3652 / RFU, ADSS / Fold change vs veh, ADSS / RFU, GK / Fold change vs veh, GK / RFU, ZNF148 / Fold change vs veh, ZNF148 / RFU, TAF9 / Fold change vs veh, TAF9 / RFU, SLC1A5 / Fold change vs veh, SLC1A5 / RFU, SLMO2 / Fold change vs veh, SLMO2 / RFU, ABCC4 / Fold change vs veh, ABCC4 / RFU, LOC101060439 /// RAP1B / Fold change vs veh, LOC101060439 /// RAP1B / RFU, RFX7 / Fold change vs veh, RFX7 / RFU, GTPBP10 / Fold change vs veh, GTPBP10 / RFU, CNEP1R1 / Fold change vs veh, CNEP1R1 / RFU, BIVM-ERCC5 /// ERCC5 / Fold change vs veh, BIVM-ERCC5 /// ERCC5 / RFU, ILF3 / Fold change vs veh, ILF3 / RFU 11762660_at / Fold change /veh 11762660_at / RFU VCAN (11757783_s_at) / Fold change /veh VCAN (11757783_s_at) / RFU DDX43 (11728927_at) / Fold change /veh DDX43 (11728927_at) / RFU KRT8 (11758188_x_at) / Fold change /veh KRT8 (11758188_x_at) / RFU NKD1 (11759106_at) / Fold change /veh NKD1 (11759106_at) / RFU SRD5A1 (11742802_a_at) / Fold change /veh SRD5A1 (11742802_a_at) / RFU TPSAB1 /// TPSB2 (11721975_s_at) / Fold change /veh TPSAB1 /// TPSB2 (11721975_s_at) / RFU GSTM3 (11746129_a_at) / Fold change /veh GSTM3 (11746129_a_at) / RFU IL23R (11737362_x_at) / Fold change /veh IL23R (11737362_x_at) / RFU TMEM51 (11727254_a_at) / Fold change /veh TMEM51 (11727254_a_at) / RFU PIWIL2 (11732686_x_at) / Fold change /veh PIWIL2 (11732686_x_at) / RFU ORM1 (11744905_x_at) / Fold change /veh ORM1 (11744905_x_at) / RFU CCDC152 (11743942_at) / Fold change /veh CCDC152 (11743942_at) / RFU ECM1 (11717891_a_at) / Fold change /veh ECM1 (11717891_a_at) / RFU IL23R (11748794_a_at) / Fold change /veh IL23R (11748794_a_at) / RFU TNFAIP8L3 (11732012_x_at) / Fold change /veh TNFAIP8L3 (11732012_x_at) / RFU MBOAT4 (11741988_at) / Fold change /veh MBOAT4 (11741988_at) / RFU 11764193_at / Fold change /veh 11764193_at / RFU TMEM53 (11763286_at) / Fold change /veh TMEM53 (11763286_at) / RFU MAGEB2 (11727129_at) / Fold change /veh MAGEB2 (11727129_at) / RFU TMEM200A (11744735_a_at) / Fold change /veh TMEM200A (11744735_a_at) / RFU CCDC152 (11751479_a_at) / Fold change /veh CCDC152 (11751479_a_at) / RFU FAM211A (11726209_a_at) / Fold change /veh FAM211A (11726209_a_at) / RFU RGS16 (11746705_a_at) / Fold change /veh RGS16 (11746705_a_at) / RFU VCAN (11755009_s_at) / Fold change /veh VCAN (11755009_s_at) / RFU RHOB (11743442_s_at) / Fold change /veh RHOB (11743442_s_at) / RFU RGS16 (11720943_a_at) / Fold change /veh RGS16 (11720943_a_at) / RFU RGS16 (11720944_at) / Fold change /veh RGS16 (11720944_at) / RFU, VPS4B / Fold change vs veh, VPS4B / RFU, CREB1 / Fold change vs veh, CREB1 / RFU, DNAJC13 / Fold change vs veh, DNAJC13 / RFU, GNAQ / Fold change vs veh, GNAQ / RFU, CDK5R1 / Fold change vs veh, CDK5R1 / RFU, ZRANB3 / Fold change vs veh, ZRANB3 / RFU, CUL4A / Fold change vs veh, CUL4A / RFU, CCNY / Fold change vs veh, CCNY / RFU, UFL1 / Fold change vs veh, UFL1 / RFU, COG3 / Fold change vs veh, COG3 / RFU, DIAPH2 / Fold change vs veh, DIAPH2 / RFU, SKA2 / Fold change vs veh, SKA2 / RFU, AFF3 / Fold change vs veh, AFF3 / RFU, LMF1 / Fold change vs veh, LMF1 / RFU, IPO11 / Fold change vs veh, IPO11 / RFU, DFFB / Fold change vs veh, DFFB / RFU, FOXP1 / Fold change vs veh, FOXP1 / RFU, CARD8 / Fold change vs veh, CARD8 / RFU, STRN3 / Fold change vs veh, STRN3 / RFU, ADK / Fold change vs veh, ADK / RFU, RASSF2 / Fold change vs veh, RASSF2 / RFU, WIPF1 / Fold change vs veh, WIPF1 / RFU, LARP1B / Fold change vs veh, LARP1B / RFU, RASA1 / Fold change vs veh, RASA1 / RFU, RB1 / Fold change vs veh, RB1 / RFU, PPFIA1 / Fold change vs veh, PPFIA1 / RFU, MAT2A / Fold change vs veh, MAT2A / RFU, CCT5 / Fold change vs veh, CCT5 / RFU, WDR92 / Fold change vs veh, WDR92 / RFU, CUX1 / Fold change vs veh, CUX1 / RFU, TTC7A / Fold change vs veh, TTC7A / RFU, TMEM135 / Fold change vs veh, TMEM135 / RFU, DEPTOR / Fold change vs veh, DEPTOR / RFU, CPM / Fold change vs veh, CPM / RFU, DNAJB6 / Fold change vs veh, DNAJB6 / RFU, CACNA2D3 / Fold change vs veh, CACNA2D3 / RFU, DTX4 / Fold change vs veh, DTX4 / RFU, TFCP2 / Fold change vs veh, TFCP2 / RFU, GMCL1 /// GMCL1P1 / Fold change vs veh, GMCL1 /// GMCL1P1 / RFU, AEBP2 / Fold change vs veh, AEBP2 / RFU, SNHG1 /// SNORD22 /// SNORD25 /// SNORD26 /// SNORD27 /// SNORD28 /// SNORD29 /// SNORD31 / Fold change vs veh, SNHG1 /// SNORD22 /// SNORD25 /// SNORD26 /// SNORD27 /// SNORD28 /// SNORD29 /// SNORD31 / Fold change (Aza/veh), C12orf56 (ProbeSet 11735607_a_at) / Fold change (ACY-1035/veh), C12orf56 (ProbeSet 11735607_a_at) / Fold change (Aza/veh), FGFR1OP (ProbeSet 11751329_s_at) / Fold change (ACY-1035/veh), FGFR1OP (ProbeSet 11751329_s_at) / Fold change (Aza/veh), VPS36 (ProbeSet 11739960_a_at) / Fold change (ACY-1035/veh), VPS36 (ProbeSet 11739960_a_at) / RFU SYPL1 (11715823_x_at) / Fold change /veh SYPL1 (11715823_x_at) / RFU IGFBP7 (11715501_s_at) / Fold change /veh IGFBP7 (11715501_s_at) / RFU REEP3 (11722064_at) / Fold change /veh REEP3 (11722064_at) / RFU IGLL1 (11728026_x_at) / Fold change /veh IGLL1 (11728026_x_at): dose or concentration left out as unconfirmed
Settings: ProbeSet 11724526_at; LIST B

SMILES: Nc1ccc(-c2cccs2)cc1NC(=O)c1ccc2c(c1)cc(C1CC1)n2CCN1CCOCC1 [ACY-1035]
- Fold change vs veh, FAHD1: 1.05
